Assay results from patent EP4094756A1 (priority 2021, dated 2022).
Where two headings read alike, the source gives them in different places.

Tests used:
SARS CoV-2 = type: cell-based
[1] = test system: VSV-ΔG SARS CoV-2 S pseudovirus; type: cell-based
in vitro = conditions: monkey, vero cells
Procedure: (§1) Also, controls (solvent, Staurosporin (1 µM)) were prepared. Supernatants of cells were removed and substances applied for 8h, 24h and 48h at 37°C. • On day 2-4: fresh MTT [3-(4,5-Dimethylthiazol-2yl)-2,5-diphenyl-tetrazolium-bromid] was diluted in PBS to a final concentration of 5 mg/ml and 25 µl/well of MTT-solution were directly added to the wells and incubated for 1 h at 37°C. • MTT supernatant was removed and cells were lysed by 50 µl/well of 100 % DMSO and incubated for 1-5 minutes at room temperature. • Measurements were done at 562 nm in a photometer and % cell survival were calculated as = 100 × OD (sample) / OD (control).

[2] = human, in vivo, iv; cited from earlier work
[3] = MTT assay (cell survival); conditions: monkey, vero cells
Procedure: as §1

Cc1cc(O)c2c(=O)c3c(O)cc(O)c4c5c(O)cc(O)c6c(=O)c7c(O)cc(C)c8c1c2c(c34)c(c78)c65 [Hypericin, hypericin]
viral load in diseased cells (PFU/ml) (SARS CoV-2): dramatically lowers the viral load | inhibition of the VSV pseudovirus [1]: clearly inhibited | MNTC (in vitro): 1 µg/mL | initial peak plasma levels [2]: 29.5 ng/mL

CC(C)=CCC[C@]1(C)[C@@H](CC=C(C)C)C[C@]2(CC=C(C)C)C(=O)C(CC=C(C)C)=C(O)[C@@]1(C(=O)C(C)C)C2=O [Hyperforin, hyperforin, reference compound]
impact on the VSV pseudovirus [1]: did not have comparable impact

Oc1cc(O)c2c(c1)O[C@H](c1ccc(O)c(O)c1)[C@H](O)[C@H]2c1c(O)cc(O)c2c1O[C@H](c1ccc(O)c(O)c1)[C@H](O)[C@H]2c1c(O)cc(O)c2c1O[C@H](c1ccc(O)c(O)c1)[C@H](O)C2 [Procyanidin C1, reference compound]
effect on the VSV pseudovirus [1]: no significant inhibition | MNTC [3]: 50 µM

Cc1cc(O)c2c(=O)c3c(O)cc(O)c4c5c(O)cc(O)c6c(=O)c7c(O)cc(CO)c8c1c2c(c34)c(c65)c78 [Pseudohypericin, pseudohypericin]
inhibition of the VSV pseudovirus ([1]; 1µg/ml): clearly inhibited | MNTC [3]: 1 µg/mL
